Data as given in ChEMBL document CHEMBL4507320, “Data for DCP probe NVS-MALT1” (2021).

Experiments:
[1] = biological target: Mitogen-activated protein kinase 15 (Homo sapiens) (UniProt Q8TD08); conditions: Compound concentration 1000.0 nM
[2] = biological target: Serine/threonine-protein kinase Nek7 (Homo sapiens) (UniProt Q8TDX7); conditions: Compound concentration 1000.0 nM
[3] = biological target: Tyrosine-protein kinase Lck (Homo sapiens) (UniProt P06239); conditions: Compound concentration 1000.0 nM
[4] = biological target: Ephrin type-B receptor 4 (Homo sapiens) (UniProt P54760); conditions: Compound concentration 1000.0 nM
[5] = biological target: D(1A) dopamine receptor (Homo sapiens) (UniProt P21728); conditions: Compound concentration 10.0 uM
[6] = biological target: Calcium/calmodulin-dependent protein kinase type II subunit beta (Homo sapiens) (UniProt Q13554); conditions: Compound concentration 1000.0 nM
[7] = biological target: Calcium/calmodulin-dependent protein kinase type 1 (Homo sapiens) (UniProt Q14012); conditions: Compound concentration 1000.0 nM
[8] = biological target: Tyrosine-protein kinase Blk (Homo sapiens) (UniProt P51451); conditions: Compound concentration 1000.0 nM
Sequence of Tyrosine-protein kinase Blk (Homo sapiens) (P51451 2-505 limits assumed): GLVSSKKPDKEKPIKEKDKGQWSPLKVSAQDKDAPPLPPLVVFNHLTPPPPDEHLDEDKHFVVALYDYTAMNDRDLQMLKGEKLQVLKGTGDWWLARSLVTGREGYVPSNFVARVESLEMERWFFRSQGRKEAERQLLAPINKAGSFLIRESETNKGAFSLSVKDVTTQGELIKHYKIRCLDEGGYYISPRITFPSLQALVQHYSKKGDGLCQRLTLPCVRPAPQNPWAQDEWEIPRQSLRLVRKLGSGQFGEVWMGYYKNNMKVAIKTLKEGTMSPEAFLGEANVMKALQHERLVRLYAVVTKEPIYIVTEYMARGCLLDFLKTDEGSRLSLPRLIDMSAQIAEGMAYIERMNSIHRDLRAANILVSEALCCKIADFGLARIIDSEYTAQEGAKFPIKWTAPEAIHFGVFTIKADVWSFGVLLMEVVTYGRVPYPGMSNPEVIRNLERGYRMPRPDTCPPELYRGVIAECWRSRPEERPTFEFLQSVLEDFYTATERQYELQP

[9] = tested on: Receptor-type tyrosine-protein kinase FLT3 (Homo sapiens), P36888 [R834Q]; conditions: Compound concentration 1000.0 nM
[10] = biological target: Tyrosine-protein kinase Mer (Homo sapiens) (UniProt Q12866); conditions: Compound concentration 1000.0 nM
Sequence of Tyrosine-protein kinase Mer (Homo sapiens) (Q12866 whole entry): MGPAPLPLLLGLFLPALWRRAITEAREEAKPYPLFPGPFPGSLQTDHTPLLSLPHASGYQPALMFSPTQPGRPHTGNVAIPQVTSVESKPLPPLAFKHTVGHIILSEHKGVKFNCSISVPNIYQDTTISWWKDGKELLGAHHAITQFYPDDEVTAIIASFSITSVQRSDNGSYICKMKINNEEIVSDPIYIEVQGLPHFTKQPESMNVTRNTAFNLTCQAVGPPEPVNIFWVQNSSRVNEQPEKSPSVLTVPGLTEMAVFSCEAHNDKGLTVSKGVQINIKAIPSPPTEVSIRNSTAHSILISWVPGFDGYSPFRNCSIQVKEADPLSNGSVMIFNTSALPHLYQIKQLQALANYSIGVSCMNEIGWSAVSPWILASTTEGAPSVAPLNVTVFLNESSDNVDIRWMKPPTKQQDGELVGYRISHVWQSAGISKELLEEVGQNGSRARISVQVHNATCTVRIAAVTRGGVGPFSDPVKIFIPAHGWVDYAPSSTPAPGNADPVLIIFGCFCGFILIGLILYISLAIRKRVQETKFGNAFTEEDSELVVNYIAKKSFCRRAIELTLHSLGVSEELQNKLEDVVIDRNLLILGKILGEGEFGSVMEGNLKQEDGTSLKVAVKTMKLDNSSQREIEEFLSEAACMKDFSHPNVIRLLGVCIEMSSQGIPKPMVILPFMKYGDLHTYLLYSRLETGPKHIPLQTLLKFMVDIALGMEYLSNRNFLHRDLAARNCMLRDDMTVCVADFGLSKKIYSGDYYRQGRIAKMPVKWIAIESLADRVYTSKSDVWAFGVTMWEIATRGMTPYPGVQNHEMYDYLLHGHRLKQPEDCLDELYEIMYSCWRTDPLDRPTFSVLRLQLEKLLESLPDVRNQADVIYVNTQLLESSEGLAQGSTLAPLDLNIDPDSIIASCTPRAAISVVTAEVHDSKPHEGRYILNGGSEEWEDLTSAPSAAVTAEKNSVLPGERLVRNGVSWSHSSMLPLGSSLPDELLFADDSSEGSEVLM

[11] = tested on: Tyrosine-protein kinase ABL1 (Homo sapiens), P00519 [T315I]; conditions: Compound concentration 1000.0 nM
[12] = biological target: Mitogen-activated protein kinase kinase kinase 13 (Homo sapiens) (UniProt O43283); conditions: Compound concentration 1000.0 nM
[13] = biological target: Serine/threonine-protein kinase TAO2 (Homo sapiens) (UniProt Q9UL54); conditions: Compound concentration 1000.0 nM
[14] = tested on: Tyrosine-protein kinase ABL1 (Homo sapiens), P00519 [F317L]; conditions: Compound concentration 1000.0 nM
[15] = biological target: Sigma non-opioid intracellular receptor 1 (Homo sapiens, UniProt Q99720); conditions: Compound concentration 10.0 uM
[16] = tested on: Serine/threonine-protein kinase B-raf (Homo sapiens), P15056 [V600E]; conditions: Compound concentration 1000.0 nM
Sequence of Serine/threonine-protein kinase B-raf (Homo sapiens), P15056 [V600E] (P15056 whole entry V600E): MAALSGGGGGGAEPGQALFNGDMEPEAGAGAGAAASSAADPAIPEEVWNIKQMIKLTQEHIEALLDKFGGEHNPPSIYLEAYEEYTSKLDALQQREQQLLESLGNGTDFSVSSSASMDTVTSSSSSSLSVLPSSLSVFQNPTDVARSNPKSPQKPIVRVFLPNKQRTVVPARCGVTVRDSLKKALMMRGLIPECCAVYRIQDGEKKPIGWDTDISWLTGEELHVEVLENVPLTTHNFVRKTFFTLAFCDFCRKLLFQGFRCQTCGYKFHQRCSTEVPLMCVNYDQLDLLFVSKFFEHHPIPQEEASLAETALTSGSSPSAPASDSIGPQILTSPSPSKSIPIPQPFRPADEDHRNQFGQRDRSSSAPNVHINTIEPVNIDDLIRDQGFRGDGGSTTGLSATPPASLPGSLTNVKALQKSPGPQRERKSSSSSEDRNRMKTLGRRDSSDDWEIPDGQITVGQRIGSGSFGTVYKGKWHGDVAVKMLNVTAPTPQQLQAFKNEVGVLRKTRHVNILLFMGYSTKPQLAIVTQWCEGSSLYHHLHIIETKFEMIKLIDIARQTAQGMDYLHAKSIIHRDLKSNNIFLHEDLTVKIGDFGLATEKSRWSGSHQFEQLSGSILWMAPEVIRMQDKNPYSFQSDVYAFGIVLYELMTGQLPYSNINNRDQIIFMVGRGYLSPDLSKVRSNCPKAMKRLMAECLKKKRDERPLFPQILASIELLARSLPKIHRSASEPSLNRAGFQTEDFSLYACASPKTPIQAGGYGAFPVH

[17] = biological target: Glycogen synthase kinase-3 alpha (Homo sapiens) (UniProt P49840); conditions: Compound concentration 1000.0 nM
[18] = biological target: Eukaryotic translation initiation factor 2-alpha kinase 1 (Homo sapiens) (UniProt Q9BQI3); conditions: Compound concentration 1000.0 nM
[19] = biological target: Protein kinase C theta type (Homo sapiens) (UniProt Q04759); conditions: Compound concentration 1000.0 nM
[20] = biological target: Homeodomain-interacting protein kinase 3 (Homo sapiens) (UniProt Q9H422); conditions: Compound concentration 1000.0 nM
[21] = biological target: Proto-oncogene tyrosine-protein kinase ROS (Homo sapiens) (UniProt P08922); conditions: Compound concentration 1000.0 nM
[22] = biological target: MAP kinase-interacting serine/threonine-protein kinase 2 (Homo sapiens) (UniProt Q9HBH9); conditions: Compound concentration 1000.0 nM
[23] = biological target: Macrophage colony-stimulating factor 1 receptor (Homo sapiens) (UniProt P07333); conditions: Compound concentration 1000.0 nM
[24] = biological target: Serine/threonine-protein kinase pim-1 (Homo sapiens) (UniProt P11309); conditions: Compound concentration 1000.0 nM
[25] = biological target: Leukocyte tyrosine kinase receptor (Homo sapiens) (UniProt P29376); conditions: Compound concentration 1000.0 nM
[26] = biological target: Myosin light chain kinase family member 4 (Homo sapiens) (UniProt Q86YV6); conditions: Compound concentration 1000.0 nM
Sequence of Myosin light chain kinase family member 4 (Homo sapiens) (Q86YV6 whole entry): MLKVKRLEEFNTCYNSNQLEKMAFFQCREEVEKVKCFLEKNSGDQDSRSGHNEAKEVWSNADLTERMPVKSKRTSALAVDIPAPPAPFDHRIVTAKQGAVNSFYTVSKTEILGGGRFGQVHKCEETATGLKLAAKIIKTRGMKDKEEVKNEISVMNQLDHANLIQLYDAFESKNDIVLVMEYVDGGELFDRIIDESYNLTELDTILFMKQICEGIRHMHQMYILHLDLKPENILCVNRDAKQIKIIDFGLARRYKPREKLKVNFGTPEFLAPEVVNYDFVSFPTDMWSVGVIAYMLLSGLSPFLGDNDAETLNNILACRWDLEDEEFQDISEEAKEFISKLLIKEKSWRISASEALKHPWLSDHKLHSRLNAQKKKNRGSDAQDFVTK

[27] = biological target: Angiopoietin-1 receptor (Homo sapiens) (UniProt Q02763); conditions: Compound concentration 1000.0 nM
[28] = biological target: SRSF protein kinase 1 (Homo sapiens) (UniProt Q96SB4); conditions: Compound concentration 1000.0 nM
[29] = biological target: Serine/threonine-protein kinase Nek1 (Homo sapiens) (UniProt Q96PY6); conditions: Compound concentration 1000.0 nM
[30] = biological target: Serine/threonine-protein kinase D3 (Homo sapiens) (UniProt O94806); conditions: Compound concentration 1000.0 nM
Sequence of Serine/threonine-protein kinase D3 (Homo sapiens) (O94806 whole entry): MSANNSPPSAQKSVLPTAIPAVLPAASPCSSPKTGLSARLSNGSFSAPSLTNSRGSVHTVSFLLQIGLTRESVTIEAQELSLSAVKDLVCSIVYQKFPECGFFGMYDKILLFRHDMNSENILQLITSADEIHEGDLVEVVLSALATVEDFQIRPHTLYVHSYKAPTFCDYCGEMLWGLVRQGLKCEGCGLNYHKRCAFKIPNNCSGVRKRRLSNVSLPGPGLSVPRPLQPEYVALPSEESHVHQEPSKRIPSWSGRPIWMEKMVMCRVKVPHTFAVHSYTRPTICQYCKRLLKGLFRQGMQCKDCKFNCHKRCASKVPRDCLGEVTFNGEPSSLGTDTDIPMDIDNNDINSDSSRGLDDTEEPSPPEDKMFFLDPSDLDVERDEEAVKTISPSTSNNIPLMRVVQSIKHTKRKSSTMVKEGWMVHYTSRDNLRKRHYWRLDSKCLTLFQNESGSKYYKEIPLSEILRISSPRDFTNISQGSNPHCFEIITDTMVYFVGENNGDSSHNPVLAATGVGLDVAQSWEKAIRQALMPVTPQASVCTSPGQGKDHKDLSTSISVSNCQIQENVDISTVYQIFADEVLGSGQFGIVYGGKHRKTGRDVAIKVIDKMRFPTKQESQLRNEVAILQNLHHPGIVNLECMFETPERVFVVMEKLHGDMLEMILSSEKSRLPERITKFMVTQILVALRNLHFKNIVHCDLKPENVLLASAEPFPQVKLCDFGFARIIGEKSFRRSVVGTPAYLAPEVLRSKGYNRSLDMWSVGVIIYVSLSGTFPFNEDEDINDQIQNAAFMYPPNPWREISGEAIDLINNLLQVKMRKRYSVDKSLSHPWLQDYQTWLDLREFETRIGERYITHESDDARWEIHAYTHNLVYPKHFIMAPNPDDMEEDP

[31] = biological target: Tyrosine-protein kinase receptor TYRO3 (Homo sapiens) (UniProt Q06418); conditions: Compound concentration 1000.0 nM
[32] = tested on: Epidermal growth factor receptor (Homo sapiens), P00533 [G719S]; conditions: Compound concentration 1000.0 nM
[33] = biological target: Mitogen-activated protein kinase kinase kinase 11 (Homo sapiens) (UniProt Q16584); conditions: Compound concentration 1000.0 nM
[34] = tested on: Phosphatidylinositol 4,5-bisphosphate 3-kinase catalytic subunit alpha isoform (Homo sapiens), P42336 [I800L]; conditions: Compound concentration 1000.0 nM
[35] = biological target: Receptor-type tyrosine-protein kinase FLT3 (Homo sapiens, UniProt P36888); conditions: Compound concentration 1000.0 nM
[36] = biological target: cGMP-dependent protein kinase 2 (Homo sapiens) (UniProt Q13237); conditions: Compound concentration 1000.0 nM
[37] = biological target: Serine/threonine-protein kinase VRK2 (Homo sapiens) (UniProt Q86Y07); conditions: Compound concentration 1000.0 nM
[38] = biological target: Non-receptor tyrosine-protein kinase TYK2 (Homo sapiens) (UniProt P29597); conditions: Compound concentration 1000.0 nM
[39] = biological target: Ribosomal protein S6 kinase alpha-1 (Homo sapiens) (UniProt Q15418); conditions: Compound concentration 1000.0 nM
[40] = biological target: Serine/threonine-protein kinase PAK 4 (Homo sapiens) (UniProt O96013); conditions: Compound concentration 1000.0 nM
[41] = biological target: Muscarinic acetylcholine receptor M3 (Homo sapiens) (UniProt P20309); conditions: Compound concentration 10.0 uM
[42] = biological target: 3-phosphoinositide-dependent protein kinase 1 (Homo sapiens) (UniProt O15530); conditions: Compound concentration 1000.0 nM
Sequence of 3-phosphoinositide-dependent protein kinase 1 (Homo sapiens) (O15530 whole entry): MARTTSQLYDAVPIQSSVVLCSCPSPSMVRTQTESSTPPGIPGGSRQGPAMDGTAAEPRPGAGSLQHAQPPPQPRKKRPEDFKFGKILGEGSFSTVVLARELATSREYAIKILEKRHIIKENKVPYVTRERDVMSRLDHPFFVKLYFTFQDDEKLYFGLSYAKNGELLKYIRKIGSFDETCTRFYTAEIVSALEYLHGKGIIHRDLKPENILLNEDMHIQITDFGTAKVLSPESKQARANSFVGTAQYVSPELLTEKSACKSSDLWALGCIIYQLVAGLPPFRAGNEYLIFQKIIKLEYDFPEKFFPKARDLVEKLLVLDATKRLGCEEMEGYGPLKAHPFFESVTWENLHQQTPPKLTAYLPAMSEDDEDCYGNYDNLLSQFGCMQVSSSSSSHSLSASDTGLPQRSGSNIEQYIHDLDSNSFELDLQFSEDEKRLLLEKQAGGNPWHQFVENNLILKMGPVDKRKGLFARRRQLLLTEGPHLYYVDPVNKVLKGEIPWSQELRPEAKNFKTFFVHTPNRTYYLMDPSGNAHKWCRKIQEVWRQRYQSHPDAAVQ

[43] = biological target: Serine/threonine-protein kinase D1 (Homo sapiens) (UniProt Q15139); conditions: Compound concentration 1000.0 nM
[44] = tested on: Tyrosine-protein kinase ABL1 (Homo sapiens), P00519 [F317I]; conditions: Compound concentration 1000.0 nM
[45] = biological target: Serine/threonine-protein kinase BRSK1 (Homo sapiens) (UniProt Q8TDC3); conditions: Compound concentration 1000.0 nM
Sequence of Serine/threonine-protein kinase BRSK1 (Homo sapiens) (Q8TDC3 whole entry): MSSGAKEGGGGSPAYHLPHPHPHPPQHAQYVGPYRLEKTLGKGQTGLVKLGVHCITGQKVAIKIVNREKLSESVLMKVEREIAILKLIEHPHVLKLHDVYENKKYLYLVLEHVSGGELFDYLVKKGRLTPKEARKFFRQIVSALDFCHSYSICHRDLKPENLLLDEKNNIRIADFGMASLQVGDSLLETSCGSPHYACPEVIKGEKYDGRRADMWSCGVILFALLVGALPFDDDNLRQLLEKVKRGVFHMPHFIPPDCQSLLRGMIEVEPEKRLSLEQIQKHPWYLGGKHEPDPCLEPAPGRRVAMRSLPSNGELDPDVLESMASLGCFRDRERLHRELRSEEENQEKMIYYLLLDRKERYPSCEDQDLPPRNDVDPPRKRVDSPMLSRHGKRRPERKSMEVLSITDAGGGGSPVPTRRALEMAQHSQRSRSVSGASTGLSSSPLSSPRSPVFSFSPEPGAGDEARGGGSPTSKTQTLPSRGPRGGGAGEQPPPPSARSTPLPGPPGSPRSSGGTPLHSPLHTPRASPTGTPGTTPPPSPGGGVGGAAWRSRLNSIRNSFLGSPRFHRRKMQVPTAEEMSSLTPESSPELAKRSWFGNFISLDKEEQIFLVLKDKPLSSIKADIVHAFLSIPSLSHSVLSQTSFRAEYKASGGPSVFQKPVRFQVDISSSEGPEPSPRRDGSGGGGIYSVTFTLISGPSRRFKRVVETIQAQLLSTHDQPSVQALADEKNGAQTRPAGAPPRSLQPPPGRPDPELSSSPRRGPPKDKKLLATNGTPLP

CO[C@@H](C)c1c(Nc2ccc([C@@H](N(C)C(=O)C3CCS(=O)(=O)CC3)C(F)(F)F)cc2)cnc2cc(Cl)nn12 [NVS-MALT1-C]
active: inhibition [15] 56.8%
inactive: residual activity [1] 81% | residual activity [2] 91% | residual activity [3] 84% | residual activity [4] 100% | inhibition [5] 17.9% | residual activity [6] 96% | residual activity [7] 82% | residual activity [8] 56% | residual activity [9] 100% | residual activity [10] 79% | residual activity [11] 78% | residual activity [12] 100% | residual activity [13] 94% | residual activity [14] 89% | residual activity [16] 85% | residual activity [17] 94% | residual activity [18] 100% | residual activity [19] 98% | residual activity [20] 100% | residual activity [21] 82% | residual activity [22] 85% | residual activity [23] 88% | residual activity [24] 100% | residual activity [25] 95% | residual activity [26] 83% | residual activity [27] 90% | residual activity [28] 95% | residual activity [29] 100% | residual activity [30] 93% | residual activity [31] 99% | residual activity [32] 96% | residual activity [33] 85% | residual activity [34] 71% | residual activity [35] 64% | residual activity [36] 100% | residual activity [37] 100% | residual activity [38] 100% | residual activity [39] 99% | residual activity [40] 100% | inhibition [41] -2.58% | residual activity [42] 97% | residual activity [43] 100% | residual activity [44] 100% | residual activity [45] 93%

CO[C@@H](C)c1c(Nc2ccc([C@H](N(C)C(=O)C3CCS(=O)(=O)CC3)C(F)(F)F)cc2)cnc2cc(Cl)nn12 [NVS-MALT1]
inactive: residual activity [1] 87% | residual activity [2] 75% | residual activity [3] 83% | residual activity [4] 100% | inhibition [5] 23.7% | residual activity [6] 94% | residual activity [7] 66% | residual activity [8] 87% | residual activity [9] 100% | residual activity [10] 87% | residual activity [11] 87% | residual activity [12] 78% | residual activity [13] 88% | residual activity [14] 89% | inhibition [15] 18.8% | residual activity [16] 96% | residual activity [17] 86% | residual activity [18] 100% | residual activity [19] 93% | residual activity [20] 100% | residual activity [21] 77% | residual activity [22] 100% | residual activity [23] 95% | residual activity [24] 88% | residual activity [25] 98% | residual activity [26] 86% | residual activity [27] 84% | residual activity [28] 96% | residual activity [29] 94% | residual activity [30] 85% | residual activity [31] 100% | residual activity [32] 100% | residual activity [33] 79% | residual activity [34] 55% | residual activity [35] 68% | residual activity [36] 100% | residual activity [37] 100% | residual activity [38] 100% | residual activity [39] 91% | residual activity [40] 95% | inhibition [41] -8.44% | residual activity [42] 100% | residual activity [43] 100% | residual activity [44] 100% | residual activity [45] 78%
